In brackets after ≈: the same amount, converted by molar mass.
Tests used:
[1] = tested on: Escherichia coli; test: Antimicrobial activity against extended-spectrum-beta-lactamase producing Escherichia coli isolates; format: functional
[2] = tested on: Escherichia coli; test: Antimicrobial activity against extended-spectrum-beta-lactamase producing Escherichia coli assessed as percent resistant isolates; format: functional
[3] = tested on: Klebsiella pneumoniae; test: Antimicrobial activity against extended-spectrum-beta-lactamase producing Klebsiella pneumoniae isolates; format: functional
[4] = tested on: Proteus mirabilis; test: Antimicrobial activity against extended-spectrum-beta-lactamase producing Proteus mirabilis isolates; format: functional
[5] = tested on: Proteus mirabilis; test: Antimicrobial activity against extended-spectrum-beta-lactamase producing Proteus mirabilis assessed as percent resistant isolates; format: functional
[6] = tested on: Klebsiella pneumoniae; test: Antimicrobial activity against extended-spectrum-beta-lactamase producing Klebsiella pneumoniae assessed as percent susceptible isolates

Row | SMILES | MIC50 [1] [µg/mL] | MIC90 [1] [µg/mL] | Activity [2] [%] | MIC50 [3] [µg/mL] | MIC90 [3] [µg/mL] | MIC50 [4] [µg/mL] | MIC90 [4] [µg/mL] | Activity [5] [%] | Activity [6] [%]
1 | CO[C@@]1(NC(=O)Cc2cccs2)C(=O)N2C(C(=O)O)=C(COC(N)=O)CS[C@@H]21 [CEFOXITIN] | 2 (≈ 4.68 µM) | ≥ 64 | 71.1 | 2 (≈ 4.68 µM) | ≥ 64 | 2 (≈ 4.68 µM) | 8 (≈ 18.7 µM) | 0 | 74.1
2 | C[C@H]1COc2c(N3CCN(C)CC3)c(F)cc3c(=O)c(C(=O)O)cn1c23.C[C@H]1COc2c(N3CCN(C)CC3)c(F)cc3c(=O)c(C(=O)O)cn1c23.O [LEVOFLOXACIN] | ≥ 32 | ≥ 32 | 8.6 | 2 | ≥ 32 | ≥ 32 | ≥ 32 | 12.5 | 48.2
3 | CO/N=C(\C(=O)N[C@@H]1C(=O)N2C(C(=O)[O-])=C(C[N+]3(C)CCCC3)CS[C@H]12)c1csc(N)n1 [CEFEPIME] | 16 (≈ 33.3 µM) | 256 (≈ 533 µM) | 0 | 1 (≈ 2.08 µM) | 256 (≈ 533 µM) | 2 (≈ 4.16 µM) | 32 (≈ 66.6 µM) | 0 | 0
4 | O=C(O)c1cn(C2CC2)c2cc(N3CCNCC3)c(F)cc2c1=O [CIPROFLOXACIN] | ≥ 16 | ≥ 16 | 8.6 | 2 (≈ 6.04 µM) | ≥ 16 | ≥ 16 | ≥ 16 | 12.5 | 46.5
5 | CO/N=C(\C(=O)N[C@@H]1C(=O)N2C(C(=O)O)=C(COC(C)=O)CS[C@H]12)c1csc(N)n1 [CEFOTAXIME] | 256 (≈ 562 µM) | 256 (≈ 562 µM) | 0 | 8 (≈ 17.6 µM) | 256 (≈ 562 µM) | 16 (≈ 35.1 µM) | 256 (≈ 562 µM) | 0 | 0
6 | NCC[C@H](O)C(=O)N[C@@H]1C[C@H](N)[C@@H](O[C@H]2O[C@H](CN)[C@@H](O)[C@H](O)[C@H]2O)[C@H](O)[C@H]1O[C@H]1O[C@H](CO)[C@@H](O)[C@H](N)[C@H]1O [AMIKACIN] | 2 (≈ 3.42 µM) | 8 (≈ 13.7 µM) | 98.1 | 2 (≈ 3.42 µM) | 16 (≈ 27.3 µM) | 2 (≈ 3.42 µM) | 4 (≈ 6.83 µM) | 100 | 91.4
7 | C[C@@H](O)[C@H]1C(=O)N2C(C(=O)O)=C(SCCNC=N)C[C@H]12 [IMIPENEM ANHYDROUS] |  |  | 100 | 0.25 (≈ 0.835 µM) | 0.25 (≈ 0.835 µM) | 1 (≈ 3.34 µM) | 4 (≈ 13.4 µM) | 100 | 100
8 | C[C@@H](O)[C@H]1C(=O)N2C(C(=O)O)=C(S[C@@H]3CN[C@H](C(=O)N(C)C)C3)[C@H](C)[C@H]12 [MEROPENEM] | 0.03 (≈ 0.0782 µM) | 0.25 (≈ 0.652 µM) | 100 | 0.03 (≈ 0.0782 µM) | 0.25 (≈ 0.652 µM) | 0.03 (≈ 0.0782 µM) | 0.25 (≈ 0.652 µM) | 100 | 100
9 | CC(C)(O/N=C(\C(=O)N[C@@H]1C(=O)N2C(C(=O)[O-])=C(C[n+]3ccccc3)CS[C@H]12)c1csc(N)n1)C(=O)O [CEFTAZIDIME] | 256 (≈ 468 µM) | 256 (≈ 468 µM) | 0 | 256 (≈ 468 µM) | 256 (≈ 468 µM) | 4 (≈ 7.32 µM) | 16 (≈ 29.3 µM) | 0 | 0
10 | C[C@H]1[C@H](NC(=O)/C(=N\OC(C)(C)C(=O)O)c2csc(N)n2)C(=O)N1S(=O)(=O)O (stereo in doubt) [AZTREONAM] | 256 (≈ 588 µM) | 256 (≈ 588 µM) |  | 256 (≈ 588 µM) | 256 (≈ 588 µM) | 0.25 (≈ 0.574 µM) | 1 (≈ 2.3 µM) | 0 | 0

Reference: ChEMBL document CHEMBL1143836, “Predictors of mortality in patients with bloodstream infections caused by extended-spectrum-beta-lactamase-producing Enterobacteriaceae: importance of inadequate initial antimicrobial treatment” (2007)
